In brackets after ≈: the same amount, converted by molar mass. Activity calls are given as the source filed them. The rule behind the calls is not given here.
Legend:
[1] = system: Raoultella planticola; experiment: Antimicrobial activity against Klebsiella planticola MTCC 530 after 24 hrs by well diffusion method; format: functional; conditions: MTCC 530, 24 h
[2] = system: Pseudomonas aeruginosa; experiment: Antimicrobial activity against Pseudomonas aeruginosa MTCC 2453 after 24 hrs by well diffusion method; format: functional; conditions: MTCC 2453, 24 h
[3] = system: Escherichia coli; experiment: Antimicrobial activity against Escherichia coli MTCC 739 after 24 hrs by well diffusion method; format: functional; conditions: MTCC 739, 24 h
[4] = system: Bacillus subtilis; experiment: Antimicrobial activity against Bacillus subtilis MTCC 121 after 24 hrs by well diffusion method; format: functional; conditions: MTCC 121, 24 h
[5] = system: Staphylococcus aureus; experiment: Antimicrobial activity against Staphylococcus aureus MLS-16 MTCC 2940 after 24 hrs by well diffusion method; format: functional; conditions: MLS-16 MTCC 2940, 24 h
[6] = system: Micrococcus luteus; experiment: Antimicrobial activity against Micrococcus luteus MTCC 2470 after 24 hrs by well diffusion method; format: functional; conditions: MTCC 2470, 24 h
[7] = system: Staphylococcus aureus; experiment: Antimicrobial activity against Staphylococcus aureus MTCC 96 after 24 hrs by well diffusion method; format: functional; conditions: MTCC 96, 24 h
[8] = system: Vero; experiment: Cytotoxicity against african green monkey Vero cells; format: cell-based; conditions: Chlorocebus sabaeus
[9] = system: MRC5; experiment: Cytotoxicity against human MRC5 cells; format: cell-based
[10] = system: Mycobacterium tuberculosis; experiment: Antimicrobial activity against Mycobacterium tuberculosis H37Rv after 3 weeks by broth dilution method; format: functional; conditions: for MIC: 504 h
[11] = system: Raoultella planticola; experiment: Antibiofilm activity against Klebsiella planticola MTCC 530 after 24 hrs by crystal violet assay; format: functional, organism-based; conditions: for IC50: MTCC 530, 24 h
[12] = system: Staphylococcus aureus; experiment: Antibiofilm activity against Staphylococcus aureus MLS-16 MTCC 2940 after 24 hrs by crystal violet assay; format: functional, organism-based; conditions: MLS-16 MTCC 2940, 24 h
[13] = system: Staphylococcus aureus; experiment: Antibiofilm activity against Staphylococcus aureus MTCC 96 after 24 hrs by crystal violet assay; format: functional, organism-based; conditions: for IC50: MTCC 96, 24 h
[14] = system: Candida albicans; experiment: Antimicrobial activity against Candida albicans MTCC 3017 at 150 ug/ml after 24 hrs by well diffusion method; format: functional, organism-based
[15] = system: Raoultella planticola; experiment: Bactericidal activity against Klebsiella planticola MTCC 530 after 24 hrs; format: functional; conditions: MTCC 530, 24 h
[16] = system: Pseudomonas aeruginosa; experiment: Bactericidal activity against Pseudomonas aeruginosa MTCC 2453 after 24 hrs; format: functional; conditions: MTCC 2453, 24 h
[17] = system: Escherichia coli; experiment: Bactericidal activity against Escherichia coli MTCC 739 after 24 hrs; format: functional; conditions: MTCC 739, 24 h
[18] = system: Bacillus subtilis; experiment: Bactericidal activity against Bacillus subtilis MTCC 121 after 24 hrs; format: functional; conditions: MTCC 121, 24 h
[19] = system: Staphylococcus aureus; experiment: Bactericidal activity against Staphylococcus aureus MLS-16 MTCC 2940 after 24 hrs; format: functional; conditions: MLS-16 MTCC 2940, 24 h
[20] = system: Staphylococcus aureus; experiment: Bactericidal activity against Staphylococcus aureus MTCC 96 after 24 hrs; format: functional; conditions: MTCC 96, 24 h
[21] = system: Micrococcus luteus; experiment: Bactericidal activity against Micrococcus luteus MTCC 2470 after 24 hrs; format: functional; conditions: MTCC 2470, 24 h
[22] = system: Staphylococcus aureus; experiment: Antimicrobial activity against methicillin-resistant Staphylococcus aureus after 24 hrs by microdilution method; format: functional
[23] = system: Enterococcus faecalis; experiment: Antimicrobial activity against vancomycin -resistant Enterococcus faecalis after 24 hrs by microdilution method; format: functional

Row | SMILES | MIC [1] | MIC [2] | MIC [3] | MIC [4] | MIC [5] | MIC [6] | MIC [7] | IC50 [8] | IC50 [9] | IC50 [12] | IC50 [13] | Activity [14] | MBC [15] | MBC [16] | MBC [17] | MBC [18] | MBC [19] | MBC [20] | MBC [21] | IC50 [11] | also measured
1 | O=C(NCc1cn(Cc2ccc(C(F)(F)F)cc2)nn1)c1ccc([N+](=O)[O-])o1 | > 150 µg/mL | > 150 µg/mL | > 150 µg/mL | 1.17 µg/mL (≈ 2.96 µM) | 2.34 µg/mL (≈ 5.92 µM) | 2.34 µg/mL (≈ 5.92 µM) | > 150 µg/mL | 289 µM | 321 µM | 8.4 µg/mL (≈ 21.2 µM) | 64.7 µg/mL (≈ 164 µM) | inactive | > 150 µg/mL | > 150 µg/mL | > 150 µg/mL | 4.68 µg/mL (≈ 11.8 µM) | 2.34 µg/mL (≈ 5.92 µM) | > 150 µg/mL | 2.34 µg/mL (≈ 5.92 µM) | – | Activity [10]: inactive; inhibition [11]: inactive
2 | COc1ccc(Cn2cc(CNC(=O)c3ccc([N+](=O)[O-])o3)nn2)cc1[N+](=O)[O-] | 9.37 µg/mL (≈ 23.3 µM) | > 150 µg/mL | 18.8 µg/mL (≈ 46.6 µM) | 2.34 µg/mL (≈ 5.82 µM) | 4.68 µg/mL (≈ 11.6 µM) | 4.68 µg/mL (≈ 11.6 µM) | > 150 µg/mL | 176 µM | 198 µM | 4.1 µg/mL (≈ 10.2 µM) | 91.2 µg/mL (≈ 227 µM) | inactive | 18.8 µg/mL (≈ 46.6 µM) | > 150 µg/mL | 18.8 µg/mL (≈ 46.6 µM) | 2.34 µg/mL (≈ 5.82 µM) | 4.68 µg/mL (≈ 11.6 µM) | > 150 µg/mL | 9.37 µg/mL (≈ 23.3 µM) | 6.1 µg/mL (≈ 15.2 µM) | MIC [10]: 16 µg/mL (≈ 39.8 µM); MIC [22]: 8 µg/mL (≈ 19.9 µM); MIC [23]: > 64 µg/mL
3 | COc1ccc(Cn2cc(CNC(=O)c3ccc([N+](=O)[O-])o3)nn2)cc1 | 37.5 µg/mL (≈ 105 µM) | > 150 µg/mL | 75 µg/mL (≈ 210 µM) | 2.34 µg/mL (≈ 6.55 µM) | 9.37 µg/mL (≈ 26.2 µM) | 2.34 µg/mL (≈ 6.55 µM) | 37.5 µg/mL (≈ 105 µM) | 274 µM | 146 µM | 6.1 µg/mL (≈ 17.1 µM) | 12.6 µg/mL (≈ 35.3 µM) | inactive | 37.5 µg/mL (≈ 105 µM) | > 150 µg/mL | 75 µg/mL (≈ 210 µM) | 4.68 µg/mL (≈ 13.1 µM) | 9.37 µg/mL (≈ 26.2 µM) | 75 µg/mL (≈ 210 µM) | 2.34 µg/mL (≈ 6.55 µM) | 24 µg/mL (≈ 67.2 µM) | Activity [10]: inactive
4 | O=C(NCc1cn(Cc2cccc([N+](=O)[O-])c2)nn1)c1ccc([N+](=O)[O-])o1 | 18.8 µg/mL (≈ 50.4 µM) | > 150 µg/mL | 9.37 µg/mL (≈ 25.2 µM) | 2.34 µg/mL (≈ 6.29 µM) | 1.17 µg/mL (≈ 3.14 µM) | 4.68 µg/mL (≈ 12.6 µM) | > 150 µg/mL | 326 µM | 199 µM | 0.8 µg/mL (≈ 2.15 µM) | 84.5 µg/mL (≈ 227 µM) | inactive | 37.5 µg/mL (≈ 101 µM) | > 150 µg/mL | 18.8 µg/mL (≈ 50.4 µM) | 4.68 µg/mL (≈ 12.6 µM) | 2.34 µg/mL (≈ 6.29 µM) | > 150 µg/mL | 9.37 µg/mL (≈ 25.2 µM) | 14.5 µg/mL (≈ 38.9 µM) | MIC [10]: 8 µg/mL (≈ 21.5 µM); MIC [22]: 8 µg/mL (≈ 21.5 µM); MIC [23]: > 64 µg/mL
5 | O=C(O)c1cn(C2CC2)c2cc(N3CCNCC3)c(F)cc2c1=O [CIPROFLOXACIN] | 0.58 µg/mL (≈ 1.75 µM) | 0.58 µg/mL (≈ 1.75 µM) | 0.58 µg/mL (≈ 1.75 µM) | 0.58 µg/mL (≈ 1.75 µM) | 0.58 µg/mL (≈ 1.75 µM) | 0.58 µg/mL (≈ 1.75 µM) | 0.58 µg/mL (≈ 1.75 µM) | 192 µM | 181 µM | – | – | – | 1.17 µg/mL (≈ 3.53 µM) | 0.58 µg/mL (≈ 1.75 µM) | 0.58 µg/mL (≈ 1.75 µM) | 1.17 µg/mL (≈ 3.53 µM) | 1.17 µg/mL (≈ 3.53 µM) | 0.58 µg/mL (≈ 1.75 µM) | 0.58 µg/mL (≈ 1.75 µM) | – | –
6 | O=C(NCc1cn(Cc2ccc([N+](=O)[O-])cc2)nn1)c1ccc([N+](=O)[O-])o1 | 18.8 µg/mL (≈ 50.4 µM) | > 150 µg/mL | > 150 µg/mL | 2.34 µg/mL (≈ 6.29 µM) | 4.68 µg/mL (≈ 12.6 µM) | 4.68 µg/mL (≈ 12.6 µM) | > 150 µg/mL | 291 µM | 213 µM | 3.8 µg/mL (≈ 10.2 µM) | – | inactive | 37.5 µg/mL (≈ 101 µM) | > 150 µg/mL | > 150 µg/mL | 4.68 µg/mL (≈ 12.6 µM) | 4.68 µg/mL (≈ 12.6 µM) | > 150 µg/mL | 9.37 µg/mL (≈ 25.2 µM) | 17.9 µg/mL (≈ 48.1 µM) | MIC [10]: 8 µg/mL (≈ 21.5 µM); inhibition [13]: inactive; MIC [22]: 8 µg/mL (≈ 21.5 µM); MIC [23]: > 64 µg/mL
7 | COc1ccc(Cn2cc(CNC(=O)c3ccc([N+](=O)[O-])o3)nn2)cc1F | 18.8 µg/mL (≈ 50 µM) | > 150 µg/mL | > 150 µg/mL | 2.34 µg/mL (≈ 6.23 µM) | 4.68 µg/mL (≈ 12.5 µM) | 4.68 µg/mL (≈ 12.5 µM) | > 150 µg/mL | 312 µM | 324 µM | 3.4 µg/mL (≈ 9.06 µM) | – | inactive | 18.8 µg/mL (≈ 50 µM) | > 150 µg/mL | > 150 µg/mL | 4.68 µg/mL (≈ 12.5 µM) | 9.37 µg/mL (≈ 25 µM) | > 150 µg/mL | 9.37 µg/mL (≈ 25 µM) | 9.8 µg/mL (≈ 26.1 µM) | Activity [10]: inactive; inhibition [13]: inactive
